Experimental data reported in patent US9260425B2 (Genetech, Inc., priority 2011, dated 2016).

What follows are compounds tested against Pim-1 (Homo sapiens (Human), UniProt P11309) (assay: Pim kinase binding activity assay (Example 901), PIM-1 enzyme, Caliper microfluidic peptide phosphorylation). Details: 20 pM PIM-1, 10 μM ATP, 1 μM FAM-peptide, 90 minutes at room temperature.
Format: biochemical
Outline: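 PIM-1 at 20 pM phosphorylated 1 μM FAM-labelled Pim peptide with 10 μM ATP in HEPES pH 7.2, MgCl2, Tween 20 and DTT for 90 min at room temperature. EDTA stopped the reaction, and product and substrate were resolved by microfluidic electrophoresis (ex 488/em 530 nm). Ki was derived from substrate conversion.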

Sequence of Pim-1 (P11309 whole entry): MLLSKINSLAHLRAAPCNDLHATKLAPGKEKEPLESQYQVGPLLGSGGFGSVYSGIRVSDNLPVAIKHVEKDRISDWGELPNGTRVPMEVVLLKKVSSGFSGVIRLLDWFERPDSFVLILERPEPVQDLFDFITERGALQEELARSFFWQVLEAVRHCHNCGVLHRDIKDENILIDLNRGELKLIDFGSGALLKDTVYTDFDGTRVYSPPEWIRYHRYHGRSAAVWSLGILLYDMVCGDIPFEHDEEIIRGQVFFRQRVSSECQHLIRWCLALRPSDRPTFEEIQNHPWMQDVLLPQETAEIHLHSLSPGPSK

Compound	Ki [nM]
CCn1cc(-c2cc3c(-c4cccc(N5CCC[C@H](N)CC5)n4)n[nH]c3cn2)cn1 [Example 481, (S)-1-(6-(5-(1-ethyl-1H-pyrazol-4-yl)-1H-pyrazolo[3,4-c]pyridin-3-yl)pyridin-2-yl)azepan-4-amine]	0.034
CCn1cc(-c2cc3c(-c4cccc(N5CCC[C@@H](NC)C5)n4)n[nH]c3cn2)cn1 [Example 482, (R)-1-(6-(5-(1-ethyl-1H-pyrazol-4-yl)-1H-pyrazolo[3,4-c]pyridin-3-yl)pyridin-2-yl)-N-methylpiperidin-3-amine]	0.147
CC(O)c1cncc(-c2cc3c(-c4cccc(N5CCNCC5)n4)n[nH]c3cn2)c1 (centres unmarked) [Example 483, 1-(5-(3-(6-(piperazin-1-yl)pyridin-2-yl)-1H-pyrazolo[3,4-c]pyridin-5-yl)pyridin-3-yl)ethanol]	0.027
CCn1cc(-c2cc3c(-c4cc(C5CC5)ccn4)n[nH]c3cn2)cn1 [Example 484, 3-(4-cyclopropylpyridin-2-yl)-5-(1-ethyl-1H-pyrazol-4-yl)-1H-pyrazolo[3,4-c]pyridine]	11.5
FCCn1cc(-c2cc3c(-c4cccc(N5CCCNCC5)n4)n[nH]c3cn2)cn1 [Example 489, 3-(6-(1,4-diazepan-1-yl)pyridin-2-yl)-5-(1-(2-fluoroethyl)-1H-pyrazol-4-yl)-1H-pyrazolo[3,4-c]pyridine]	0.014
CCn1cc(-c2cc3c(-c4cccc(N5CCCCC(O)C5)n4)n[nH]c3cn2)cn1 (centres unmarked) [Example 494, 1-(6-(5-(1-ethyl-1H-pyrazol-4-yl)-1H-pyrazolo[3,4-c]pyridin-3-yl)pyridin-2-yl)azepan-3-ol]	0.122
OCCn1cc(-c2cc3c(-c4cccc(N5CCNCC5)n4)n[nH]c3cn2)cn1 [Example 496, 2-(4-(3-(6-(piperazin-1-yl)pyridin-2-yl)-1H-pyrazolo[3,4-c]pyridin-5-yl)-1H-pyrazol-1-yl)ethanol]	0.13
CCn1cc(-c2cc3c(-c4cc(CO)ccn4)n[nH]c3cn2)cn1 [Example 498, (2-(5-(1-ethyl-1H-pyrazol-4-yl)-1H-pyrazolo[3,4-c]pyridin-3-yl)pyridin-4-yl)methanol]	17.2
C=C(C)c1ccnc(-c2n[nH]c3cnc(-c4cnn(CC)c4)cc23)c1 [Example 500, 5-(1-ethyl-1H-pyrazol-4-yl)-3-(4-(prop-1-en-2-yl)pyridin-2-yl)-1H-pyrazolo[3,4-c]pyridine]	54.1
C[C@H]1CN(c2cccc(-c3n[nH]c4cnc(-c5cnn(CCF)c5)cc34)n2)CCN1 [Example 503, (S)-5-(1-(2-fluoroethyl)-1H-pyrazol-4-yl)-3-(6-(3-methylpiperazin-1-yl)pyridin-2-yl)-1H-pyrazolo[3,4-c]pyridine]	0.0294
CCn1cc(-c2cc3c(-c4cccc(N5CCNCC(F)C5)n4)n[nH]c3cn2)cn1 (centres unmarked) [Example 504, 5-(1-ethyl-1H-pyrazol-4-yl)-3-(6-(6-fluoro-1,4-diazepan-1-yl)pyridin-2-yl)-1H-pyrazolo[3,4-c]pyridine]	0.076
CCn1cc(-c2cc3c(-c4cc(C(C)C)ccn4)n[nH]c3cn2)cn1 [Example 507, 5-(1-ethyl-1H-pyrazol-4-yl)-3-(4-isopropylpyridin-2-yl)-1H-pyrazolo[3,4-c]pyridine]	29.8
Cc1ccc(-c2n[nH]c3cnc(-c4cnn(C)c4)cc23)nc1N1C[C@@H](N)C[C@@H](F)C1 [Example 509, (3S,5R)-5-fluoro-1-(3-methyl-6-(5-(1-methyl-1H-pyrazol-4-yl)-1H-pyrazolo[3,4-c]pyridin-3-yl)pyridin-2-yl)piperidin-3-amine]	0.056
CCn1cc(-c2cc3c(-c4cccc(N5CCNCC(CO)C5)n4)n[nH]c3cn2)cn1 (centres unmarked) [Example 511, (1-(6-(5-(1-ethyl-1H-pyrazol-4-yl)-1H-pyrazolo[3,4-c]pyridin-3-yl)pyridin-2-yl)-1,4-diazepan-6-yl)methanol]	0.016
NC1CCCCN(c2cccc(-c3n[nH]c4cnc(-c5cnn(CCF)c5)cc34)n2)C1 (centres unmarked) [Example 514, 1-(6-(5-(1-(2-fluoroethyl)-1H-pyrazol-4-yl)-1H-pyrazolo[3,4-c]pyridin-3-yl)pyridin-2-yl)azepan-3-amine]	0.077
CCn1cncc(-c2cc3c(-c4cccc(N5CCNCC5)n4)n[nH]c3cn2)c1=O [Example 515, 3-ethyl-5-(3-(6-(piperazin-1-yl)pyridin-2-yl)-1H-pyrazolo[3,4-c]pyridin-5-yl)pyrimidin-4(3H)-one]	0.015
Cn1cc(-c2cc3c(-c4cccc(N5C[C@H](N)C[C@@H](F)C5)n4)n[nH]c3cn2)cn1 [Example 517, (3R,5R)-5-fluoro-1-(6-(5-(1-methyl-1H-pyrazol-4-yl)-1H-pyrazolo[3,4-c]pyridin-3-yl)pyridin-2-yl)piperidin-3-amine]	1.17

The remaining compounds from weak to strong by Ki, led by results:

Ki [nM]	Compound
43.6	CCc1ccnc(-c2n[nH]c3cnc(-c4cnn(CC)c4)cc23)c1 [Example 493, 5-(1-ethyl-1H-pyrazol-4-yl)-3-(4-ethylpyridin-2-yl)-1H-pyrazolo[3,4-c]pyridine]
23.2	CCn1cc(-c2cc3c(-c4cc(C)ccn4)n[nH]c3cn2)cn1 [Example 492, 5-(1-ethyl-1H-pyrazol-4-yl)-3-(4-methylpyridin-2-yl)-1H-pyrazolo[3,4-c]pyridine]
10.6	CCn1cc(-c2cc3c(-c4ccccn4)n[nH]c3cn2)cn1 [Example 508, 5-(1-ethyl-1H-pyrazol-4-yl)-3-(pyridin-2-yl)-1H-pyrazolo[3,4-c]pyridine]
0.181	CCn1cc(-c2cc3c(-c4cccc(N5CCNC(C(F)(F)F)CC5)n4)n[nH]c3cn2)cn1 (centres unmarked) [Example 491, 5-(1-ethyl-1H-pyrazol-4-yl)-3-(6-(5-(trifluoromethyl)-1,4-diazepan-1-yl)pyridin-2-yl)-1H-pyrazolo[3,4-c]pyridine]
0.139	CCn1cc(-c2cc3c(-c4cccc(N5CCCC[C@@H](O)C5)n4)n[nH]c3cn2)cn1 [Example 502, (R)-1-(6-(5-(1-ethyl-1H-pyrazol-4-yl)-1H-pyrazolo[3,4-c]pyridin-3-yl)pyridin-2-yl)azepan-3-ol]
0.122	Cn1cc(-c2cc3c(-c4cccc(N5C[C@@H](N)C[C@@H](F)C5)n4)n[nH]c3cn2)cn1 [Example 495, (3S,5R)-5-fluoro-1-(6-(5-(1-methyl-1H-pyrazol-4-yl)-1H-pyrazolo[3,4-c]pyridin-3-yl)pyridin-2-yl)piperidin-3-amine]
0.107	CCn1cc(-c2cc3c(-c4cc(C#N)cc(N5CCCNCC5)n4)n[nH]c3cn2)cn1 [Example 490, 2-(1,4-diazepan-1-yl)-6-(5-(1-ethyl-1H-pyrazol-4-yl)-1H-pyrazolo[3,4-c]pyridin-3-yl)isonicotinonitrile]
0.106	c1cc(-c2n[nH]c3cnc(-c4cnn(C5CC5)c4)cc23)nc(N2CCNCC2)c1 [Example 487, 5-(1-cyclopropyl-1H-pyrazol-4-yl)-3-(6-(piperazin-1-yl)pyridin-2-yl)-1H-pyrazolo[3,4-c]pyridine]
0.103	CCn1cc(-c2cc3c(-c4cccc(N5CCCC[C@H](O)C5)n4)n[nH]c3cn2)cn1 [Example 501, (S)-1-(6-(5-(1-ethyl-1H-pyrazol-4-yl)-1H-pyrazolo[3,4-c]pyridin-3-yl)pyridin-2-yl)azepan-3-ol]
0.082	CCn1cc(-c2cc3c(-c4cccc(N5CCCCC(N)C5)n4)n[nH]c3cn2)cn1 (centres unmarked) [Example 518, 1-(6-(5-(1-ethyl-1H-pyrazol-4-yl)-1H-pyrazolo[3,4-c]pyridin-3-yl)pyridin-2-yl)azepan-3-amine]
0.055	CCn1cc(-c2cc3c(-c4cccc(NC5CCCCNC5)n4)n[nH]c3cn2)cn1 (centres unmarked) [Example 513, N-(6-(5-(1-ethyl-1H-pyrazol-4-yl)-1H-pyrazolo[3,4-c]pyridin-3-yl)pyridin-2-yl)azepan-3-amine]
0.04	CCn1cc(-c2cc3c(-c4cccc(N5CCNCC(CO)C5)n4)n[nH]c3cn2)cn1 (centres unmarked) [Example 512, (1-(6-(5-(1-ethyl-1H-pyrazol-4-yl)-1H-pyrazolo[3,4-c]pyridin-3-yl)pyridin-2-yl)-1,4-diazepan-6-yl)methanol]
0.03	CCn1cc(-c2cc3c(-c4ccc(C)c(N5C[C@@H](N)C[C@@H](F)C5)n4)n[nH]c3cn2)cn1 [Example 510, (3S,5R)-1-(6-(5-(1-ethyl-1H-pyrazol-4-yl)-1H-pyrazolo[3,4-c]pyridin-3-yl)-3-methylpyridin-2-yl)-5-fluoropiperidin-3-amine]
0.024	CC1CN(c2cccc(-c3n[nH]c4cnc(-c5cnn(CCF)c5)cc34)n2)CCN1 (centres unmarked) [Example 516, 5-(1-(2-fluoroethyl)-1H-pyrazol-4-yl)-3-(6-(3-methylpiperazin-1-yl)pyridin-2-yl)-1H-pyrazolo[3,4-c]pyridine]
0.022	N[C@H]1CCCN(c2nc(-c3n[nH]c4cnc(-c5cccnc5)cc34)ccc2C2CC2)C1 [Example 485, (S)-1-(3-cyclopropyl-6-(5-(pyridin-3-yl)-1H-pyrazolo[3,4-c]pyridin-3-yl)pyridin-2-yl)piperidin-3-amine]
0.022	FC(F)(F)Cn1cc(-c2cc3c(-c4cccc(N5CCNCC5)n4)n[nH]c3cn2)cn1 [Example 488, 3-(6-(piperazin-1-yl)pyridin-2-yl)-5-(1-(2,2,2-trifluoroethyl)-1H-pyrazol-4-yl)-1H-pyrazolo[3,4-c]pyridine]
0.021	CCn1cc(-c2cc3c(-c4ccc(C5CC5)c(N5CCC[C@H](N)C5)n4)n[nH]c3cn2)cn1 [Example 506, (S)-1-(3-cyclopropyl-6-(5-(1-ethyl-1H-pyrazol-4-yl)-1H-pyrazolo[3,4-c]pyridin-3-yl)pyridin-2-yl)piperidin-3-amine]
0.009	Cn1cc(-c2cc3c(-c4ccc(C5CC5)c(N5CCC[C@H](N)C5)n4)n[nH]c3cn2)cn1 [Example 486, (S)-1-(3-cyclopropyl-6-(5-(1-methyl-1H-pyrazol-4-yl)-1H-pyrazolo[3,4-c]pyridin-3-yl)pyridin-2-yl)piperidin-3-amine]
